4 compounds from US12077503B2, “Substituted cyclic amides and their use as herbicides” (FMC CORPORATION, priority 2015, dated 2024) can be followed below.

One series has as its system Kochia (Kochia scoparia). The series can be described thus: Test A preemergence. The series is classed as in vivo. The conditions noted are these: Bassia scoparia, pre-emergence, 240 h; for pest or weed control at 125 g/ha: 125 g ai/ha; for pest or weed control at 500 g/ha: 500 g ai/ha. The method, boiled down:
(§1)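 Preemergence directed soil spray on seeded pots, or postemergence application to plants 2–10 cm, one- to two-leaf. Solvent mixture non-phytotoxic, with surfactant. Scored ~10 d later, visually, 0–100 vs untreated.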

The test system of series [1] is barnyardgrass (Echinochloa crus-galli). The series can be described thus: Test A preemergence. It is filed as in vivo. The note with it: Echinochloa crus-galli, pre-emergence, 240 h; for pest or weed control at 125 g/ha: 125 g ai/ha; for pest or weed control at 500 g/ha: 500 g ai/ha. The method, boiled down:
as §1

Series [2] concerns pigweed (Amaranthus retroflexus). The series can be described thus: Test A preemergence. The note with it: Amaranthus retroflexus, pre-emergence, 240 h; for pest or weed control at 125 g/ha: 125 g ai/ha; for pest or weed control at 500 g/ha: 500 g ai/ha. It is filed as in vivo.
Series [3] relates to ragweed (common ragweed, Ambrosia elatior). The series can be described thus: Test A preemergence. The conditions noted are these: Ambrosia artemisiifolia, pre-emergence, 240 h; for pest or weed control at 125 g/ha: 125 g ai/ha; for pest or weed control at 500 g/ha: 500 g ai/ha. It is filed as in vivo. The method, boiled down: as §1
The subject of series [4] is ryegrass, Italian (Italian ryegrass, Lolium multiflorum). The series can be described thus: Test A preemergence. It is filed as in vivo. The note with it: Lolium multiflorum, pre-emergence, 240 h; for pest or weed control at 125 g/ha: 125 g ai/ha; for pest or weed control at 500 g/ha: 500 g ai/ha. The method, boiled down:
as §1

The mark [5] stands for this setting: preemergence, 0 to 100 scale where 0 is no effect and 100 is complete control, read-out: Kochia plant response rating.
Setting [6] is: Preemergence, visual injury vs untreated controls after approximately 10 d, read-out: Kochia plant response rating (0 to 100 scale where 0 is no effect and 100 is complete control).
The mark [7] stands for this setting: preemergence, 0 to 100 scale where 0 is no effect and 100 is complete control, read-out: Barnyardgrass plant response rating.
Where [8] appears, read: Preemergence, visual injury vs untreated controls after approximately 10 d, read-out: Barnyardgrass plant response rating (0 to 100 scale where 0 is no effect and 100 is complete control).
Where [9] appears, read: preemergence, 0 to 100 scale where 0 is no effect and 100 is complete control, read-out: Pigweed plant response rating.
Where [10] appears, read: Preemergence, visual injury vs untreated controls after approximately 10 d, read-out: Pigweed plant response rating (0 to 100 scale where 0 is no effect and 100 is complete control).
Where [11] appears, read: preemergence, 0 to 100 scale where 0 is no effect and 100 is complete control, read-out: Ragweed plant response rating.
Where [12] appears, read: Preemergence, visual injury vs untreated controls after approximately 10 d, read-out: Ragweed plant response rating (0 to 100 scale where 0 is no effect and 100 is complete control).
Where [13] appears, read: preemergence, 0 to 100 scale where 0 is no effect and 100 is complete control, read-out: Ryegrass, Italian plant response rating.
Where [14] appears, read: Preemergence, visual injury vs untreated controls after approximately 10 d, read-out: Ryegrass, Italian plant response rating (0 to 100 scale where 0 is no effect and 100 is complete control).
Setting [15] is: preemergence, 0 to 100 scale where 0 is no effect and 100 is complete control, approx. 10 d, read-out: Kochia plant response rating.
Where [16] appears, read: preemergence, 0 to 100 scale where 0 is no effect and 100 is complete control, approx. 10 d, read-out: Barnyardgrass plant response rating.
Where [17] appears, read: preemergence, 0 to 100 scale where 0 is no effect and 100 is complete control, approx. 10 d, read-out: Pigweed plant response rating.
Where [18] appears, read: preemergence, 0 to 100 scale where 0 is no effect and 100 is complete control, approx. 10 d, read-out: Ragweed plant response rating.
[19] abbreviates: preemergence, 0 to 100 scale where 0 is no effect and 100 is complete control, approx. 10 d, read-out: Ryegrass, Italian plant response rating.

Read-outs that look alike come from different tables or passages of the source.

As for `CN1CC(c2cccc(I)c2)C(C(=O)Nc2ccccc2F)C1=O` (centres unmarked) [Compound 846], the melting point was 132 to 135 °C. The pest or weed control at 125 g/ha in the series on Kochia (Kochia scoparia) (setting [5]) amounted to 20%. Moreover, in the series on Kochia (Kochia scoparia) (setting [6]), the pest or weed control at 500 g/ha worked out at 70%. In series [1] (setting [7]), the pest or weed control at 125 g/ha was 90%. For the same compound, the pest or weed control at 500 g/ha in series [1] (setting [8]) was found to be 90%. Moreover, in series [2] (setting [9]), the pest or weed control at 125 g/ha was found to be 0%. Further, in series [2] (setting [10]), the pest or weed control at 500 g/ha was found to be 0%. Further, the pest or weed control at 125 g/ha in series [3] (setting [11]) came out at 0%. The pest or weed control at 500 g/ha in series [3] (setting [12]) stood at 0%. For the same compound, the pest or weed control at 125 g/ha in series [4] (setting [13]) was 60%. Also, in series [4] (setting [14]), the pest or weed control at 500 g/ha amounted to 70%.

For the compound `O=C1NCC[C@H](c2cccc(Cl)c2)[C@H]1C(=O)Nc1ccccc1F` [Compound 1159], the melting point is 141 to 143 °C. Also, the pest or weed control at 125 g/ha in the series on Kochia (Kochia scoparia) (setting [15]) was determined as 0%. Also, the pest or weed control at 500 g/ha in the series with Kochia (Kochia scoparia) (setting [5]) amounted to 30%. Moreover, in series [1] (setting [16]), the pest or weed control at 125 g/ha was 60%. Also, the pest or weed control at 500 g/ha in series [1] (setting [7]) was 90%. The pest or weed control at 125 g/ha in series [2] (setting [17]) is 0%. Also, the pest or weed control at 500 g/ha in series [2] (setting [9]) turned out to be 0%. Besides, the pest or weed control at 125 g/ha in series [3] (setting [18]) is 0%. Moreover, in series [3] (setting [11]), the pest or weed control at 500 g/ha stood at 0%. Also, the pest or weed control at 125 g/ha in series [4] (setting [19]) was 0%. Further, the pest or weed control at 500 g/ha in series [4] (setting [13]) came out at 0%.

As to `CN1C[C@H](c2ccc(C(F)(F)F)cc2)[C@@H](C(=O)Nc2ccccc2[S+](C)[O-])C1=O` (some centres unmarked) [Compound 915], the melting point is 181 to 184 °C. Also, the pest or weed control at 125 g/ha in the series with Kochia (Kochia scoparia) (setting [5]) was 80%. Besides, the pest or weed control at 500 g/ha in the series on Kochia (Kochia scoparia) (setting [6]) amounted to 90%. Moreover, the pest or weed control at 125 g/ha in series [1] (setting [7]) came to 100%. Besides, in series [1] (setting [8]), the pest or weed control at 500 g/ha came out at 100%. Besides, the pest or weed control at 125 g/ha in series [2] (setting [9]) turned out to be 80%. Besides, the pest or weed control at 500 g/ha in series [2] (setting [10]) was determined as 90%. Further, the pest or weed control at 125 g/ha in series [3] (setting [11]) came to 80%. The pest or weed control at 500 g/ha in series [3] (setting [12]) came out at 90%. Besides, the pest or weed control at 125 g/ha in series [4] (setting [13]) amounted to 40%. Moreover, the pest or weed control at 500 g/ha in series [4] (setting [14]) is 70%.

With `O=C1NC[C@H](c2nccs2)[C@H]1C(=O)Nc1cccc(F)c1F` [Compound 1182], the melting point fell in the range of 139.5 to 153 °C. Besides, the pest or weed control at 125 g/ha in the series on Kochia (Kochia scoparia) (setting [15]) turned out to be 0%. Besides, in the series on Kochia (Kochia scoparia) (setting [5]), the pest or weed control at 500 g/ha came out at 0%. Further, the pest or weed control at 125 g/ha in series [1] (setting [16]) stood at 0%. In addition, in series [1] (setting [7]), the pest or weed control at 500 g/ha worked out at 0%. The pest or weed control at 125 g/ha in series [2] (setting [17]) turned out to be 0%. For the same compound, the pest or weed control at 500 g/ha in series [2] (setting [9]) worked out at 0%. For the same compound, in series [3] (setting [18]), the pest or weed control at 125 g/ha worked out at 0%. Besides, the pest or weed control at 500 g/ha in series [3] (setting [11]) is 0%. Moreover, in series [4] (setting [19]), the pest or weed control at 125 g/ha was 0%. The pest or weed control at 500 g/ha in series [4] (setting [13]) was determined as 0%.
